Measurements as given in US8084621B2, “3-Pyrrolo[b]cyclohexylene-2-dihydroindolinone derivatives and uses thereof” (Jiangsu Simcere Pharmaceutical R&D Co. Ltd., priority 2006, dated 2011).
pIC50: −log10 of the molar value.

Target: T1, VEGFR-2 (Homo sapiens, UniProt P35968)
T1 construct: purchased Cell Signaling Technology CO
Test: Protein kinase activity by ELISA in vitro, VEGFR-2
Type: biochemical
Conditions: for pIC50: read-out: IC50 of the VEGF Receptor Kinase; for inhibition at 0.1 µM: concentration of 10^−7 mol/L, read-out: kinase inhibition ratio, VEGFR-2
Method: An ELISA (Enzyme-Linked Immunosorbent Sandwich Assay) procedure may be used to detect and measure the level of protein tyrosine kinase activity. […] According to the principle of ELISA, a monoclonal antibody can react with phosphorylated substrate specially, so biotin-labeled substrate is binded to streptavidin-coated ELISA plate, and then binded to a HRP-labeled goat anti-mouse antibody. Finally TMB is added for a color reaction and the value of A450-A630 is read by ELISA plate reader. The OD value can reflect the inhibitory activity of the VEGFR-2, PDGFR-β, c-Kit tyrosine kinases etc. treated with the test compounds at the different concentrations. So, the assay may be used to measure the inhibition ratio of the compounds for the tyrosine kinase activity. Similar assays can be designed along the same lines for any PK using techniques well known in the art.
According to the principle of ELISA, a monoclonal antibody can react with phosphorylated substrate specially, so biotin-labeled substrate is binded to streptavidin-coated ELISA plate, and then binded to a HRP-labeled goat anti-mouse antibody. Finally TMB is added for a color reaction and the value of A450-A630 is read by ELISA plate reader. The OD value can reflect the inhibitory activity of the VEGFR-2, PDGFR-β c-Kit tyrosine kinases treated with the test compounds at the different concentrations. So, the assay may be used to measure the inhibition ratio of the compounds for the tyrosine kinase activity. Similar assays can be designed along the same lines for any PK using techniques well known in the art.
VEGF Receptor 2, PDGF Receptor-beta and c-kit kinase assay kit (include kinase, 1.25M DTT, substrate peptide, 10 mM ATP, P-Tyr-100 Mouse antibody, 4×HTScan tyrosine kinase buffer), Cell Signaling Technology CO.; HRP labeled goat anti mouse IgG, Protein Tech CO.; TMB, Pierce CO.; Streptavidin Microtitration Plate, Greiner Bio-one CO.; Infinite M200 Reader, Tecan CO.
1.2.1 Immediately transfer enzyme from −80° C. to ice. Allow enzyme to thaw on ice then at 4° C. and centrifugate transiently to the bottom of centrifuge tube, then lay back on ice quickly
1.2.2 Add 10 μl of DTT (1.25 M) to 2.5 ml of 4×HTScan tyrosine kinase buffer (240 mM HEPES pH 7.5, 20 mM MgCl2, 20 mM MnCl2, 12 μM Na3VO4). Transfer 0.6 ml of DTT/Kinase buffer to each enzyme tube to make 4× reaction Cocktail. Incubate 12.5 μl of the 4× reaction cocktail with 12.5 μl/well prediluted compound of interest for 5 minutes at room temperature, and set blank control, free-enzyme control, negative control and positive control. 1.2.3 Add 10 μl 10 mM ATP to 1.25 ml 6 μM substrate peptide. Dilute the mixture with dH20 to 2.5 ml to make 2×ATP/substrate cocktail. Add 25 μl of 2×ATP/substrate cocktail to 25 μl/well preincubated reaction cocktail/compound. Incubate reaction plate at room temperature for 30 minutes. 1.2.4 Add 50 μl/well stop Buffer (50 mM EDTA, pH 8) to stop the reaction. Transfer 25 μl of each reaction and 75 μl dH2O/well to a 96-well streptavidin coated plate and incubate at room temperature for 60 minutes. Wash three times with 200 μl/well PBS/T(1×PBS, 0.05% Tween-20). 1.2.5 Dilute primary antibody, Phospho-Tyrosine mAb (P-Tyr-100), 1:500 in PBS/T with 1% BSA. Add 100 μl/well primary antibody. Incubate at room temperature for 60 minutes. Wash three times with 200 μl/well PBS/T(1×PBS, 0.05% Tween-20). 1.2.6 Prepare appropriate dilution of HRP labeled secondary antibody, 1:500 in PBS/T with 1% BSA. Add 100 μl/well secondary antibody solution. Incubate at room temperature for 30 minutes. Wash five times with 200 μl/well PBS/T 1.2.7 Add 100 μl/well TMB substrate and incubate at room temperature for 1-10 minutes. Add 50 μl 2M H2SO4 to stop the color reaction. Read the absorbance of A450-A630 with the Infinite M200 microtiter plate reader. 1.2.8 Calculate the inhibition ratio with the following formula: […]

T1 sequence (P35968 20-1356): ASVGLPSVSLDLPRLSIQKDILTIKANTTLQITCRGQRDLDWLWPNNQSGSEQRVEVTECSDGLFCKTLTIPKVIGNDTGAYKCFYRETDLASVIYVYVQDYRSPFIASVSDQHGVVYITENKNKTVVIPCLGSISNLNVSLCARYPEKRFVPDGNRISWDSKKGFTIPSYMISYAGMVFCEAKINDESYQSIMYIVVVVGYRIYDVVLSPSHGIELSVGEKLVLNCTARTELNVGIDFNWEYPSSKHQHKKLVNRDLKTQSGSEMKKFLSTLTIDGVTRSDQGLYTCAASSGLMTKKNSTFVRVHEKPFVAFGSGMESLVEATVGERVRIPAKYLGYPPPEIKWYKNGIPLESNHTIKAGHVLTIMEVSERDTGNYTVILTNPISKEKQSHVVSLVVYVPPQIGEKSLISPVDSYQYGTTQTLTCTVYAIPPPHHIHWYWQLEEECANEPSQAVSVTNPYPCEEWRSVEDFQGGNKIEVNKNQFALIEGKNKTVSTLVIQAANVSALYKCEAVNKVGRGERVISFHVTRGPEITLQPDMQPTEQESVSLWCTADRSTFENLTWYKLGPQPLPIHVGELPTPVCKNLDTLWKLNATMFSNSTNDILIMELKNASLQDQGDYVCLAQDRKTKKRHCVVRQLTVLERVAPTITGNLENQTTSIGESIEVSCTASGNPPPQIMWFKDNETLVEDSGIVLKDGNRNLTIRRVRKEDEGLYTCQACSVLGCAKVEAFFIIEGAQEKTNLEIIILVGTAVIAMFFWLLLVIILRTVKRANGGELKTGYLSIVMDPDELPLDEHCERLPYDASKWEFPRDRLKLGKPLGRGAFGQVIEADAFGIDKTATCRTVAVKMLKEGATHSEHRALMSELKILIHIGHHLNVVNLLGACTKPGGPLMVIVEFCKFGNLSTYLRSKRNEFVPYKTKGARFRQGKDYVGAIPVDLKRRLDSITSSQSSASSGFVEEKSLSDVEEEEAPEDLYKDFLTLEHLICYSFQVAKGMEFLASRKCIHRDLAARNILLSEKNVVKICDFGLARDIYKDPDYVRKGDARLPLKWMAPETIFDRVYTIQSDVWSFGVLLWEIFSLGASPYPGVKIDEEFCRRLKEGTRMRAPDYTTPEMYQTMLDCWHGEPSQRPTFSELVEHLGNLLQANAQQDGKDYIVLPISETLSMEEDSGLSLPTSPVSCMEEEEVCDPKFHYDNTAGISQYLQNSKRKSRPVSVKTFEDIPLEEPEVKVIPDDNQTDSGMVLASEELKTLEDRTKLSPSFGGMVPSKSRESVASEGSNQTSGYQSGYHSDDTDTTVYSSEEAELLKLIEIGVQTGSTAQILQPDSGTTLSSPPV

| pIC50 | inhibition at 0.1 µM [%] | SMILES |
| --- | --- | --- |
| 7.52 | – | Cc1[nH]c2c(c1C(=O)NCCO)CCC/C2=C1/C(=O)Nc2ccc(F)cc21 [I-9, N-(2-hydroxyethyl)-2-methyl-7-[1,2-dihydro-5-fluoro-2-oxo-3H-indol-(Z)-3-ylidene]-4,5,6,7-tetrahydro-1H-indole-3-carboxamide] |
| – | 82 | Cc1[nH]c2c(c1C(=O)NCCCN(C)C)CCC/C2=C1/C(=O)Nc2ccc(Cl)cc21 [I-7, N-(3-(dimethylamino)propyl)-2-methyl-7-[1,2-dihydro-5-chloro-2-oxo-3H-indol-(Z)-3-ylidene]-4,5,6,7-tetrahydro-1H-indole-3-carboxamide] |
| – | 75 | CCN(CC)CCNC(=O)c1c(C)[nH]c2c1CCC/C2=C1/C(=O)Nc2ccc(F)cc21 [I-2, N-(2-(diethylamino)ethyl)-2-methyl-7-[1,2-dihydro-5-fluoro-2-oxo-3H-indol-(Z)-3-ylidene]-4,5,6,7-tetrahydro-1H-indole-3-carboxamide] |
| – | 84 | Cc1[nH]c2c(c1C(=O)NCC(O)CN1CCCC1)CCC/C2=C1/C(=O)Nc2ccccc21 (stereo not drawn) [I-70, N-(2-hydroxy-3-(pyrrolidin-1-yl)propyl)-2-methyl-7-[1,2-dihydro-2-oxo-3H-indol-(Z)-3-ylidene]-4,5,6,7-tetrahydro-1H-indole-3-carboxamide] |
| 7.89 | – | Cc1[nH]c2c(c1C(=O)NCC(O)CN1CCCCC1)CCC/C2=C1/C(=O)Nc2ccc(F)cc21 (stereo not drawn) [I-74, N-(2-hydroxy-3-(piperidin-1-yl)propyl)-2-methyl-7-[1,2-dihydro-5-fluoro-2-oxo-3H-indol-(Z)-3-ylidene]-4,5,6,7-tetrahydro-1H-indole-3-carboxamide] |
| 8.28 | 54 | CCN(CC)CCNC(=O)c1c(C)[nH]c2c1CCC/C2=C1/C(=O)Nc2ccc(Cl)cc21 [I-3, N-(2-(diethylamino)ethyl)-2-methyl-7-[1,2-dihydro-5-chloro-2-oxo-3H-indol-(Z)-3-ylidene]-4,5,6,7-tetrahydro-1H-indole-3-carboxamide] |
| – | 76 | Cc1[nH]c2c(c1C(=O)NCCO)CCC/C2=C1/C(=O)Nc2ccccc21 [I-8, N-(2-hydroxyethyl)-2-methyl-7-[1,2-dihydro-2-oxo-3H-indol-(Z)-3-ylidene]-4,5,6,7-tetrahydro-1H-indole-3-carboxamide] |
| 7.10 | – | Cc1[nH]c2c(c1C(=O)N1CCN(C)CC1)CCC/C2=C1/C(=O)Nc2ccc(F)cc21 [I-14, 2-methyl-3-(4-methylpiperazine-1-carbonyl)-7-[1,2-dihydro-5-fluoro-2-oxo-3H-indol-(Z)-3-ylidene]-4,5,6,7-tetrahydro-1H-indole] |
| 7.47 | – | Cc1[nH]c2c(c1C(=O)NCC(O)CN1CCCC1)CCC/C2=C1/C(=O)Nc2ccc(F)cc21 (stereo not drawn) [I-71, N-(2-hydroxy-3-(pyrrolidin-1-yl)propyl)-2-methyl-7-[1,2-dihydro-5-fluoro-2-oxo-3H-indol-(Z)-3-ylidene]-4,5,6,7-tetrahydro-1H-indole-3-carboxamide] |
| 7.60 | – | Cc1[nH]c2c(c1C(=O)NCC(O)CN1CCN(C)CC1)CCC/C2=C1/C(=O)Nc2ccc(F)cc21 (stereo not drawn) [I-77, N-[2-hydroxy-3-(4-methylpiperazin-1-yl)propyl]-2-methyl-7-[1,2-dihydro-5-fluoro-2-oxo-3H-indol-(Z)-3-ylidene]-4,5,6,7-tetrahydro-1H-indole-3-carboxamide] |
| 7.37 | – | Cc1[nH]c2c(c1C(=O)NCC(O)CN1CCOCC1)CCC/C2=C1/C(=O)Nc2ccc(F)cc21 (stereo not drawn) [I-68, N-(2-hydroxy-3-morpholinopropyl)-2-methyl-7-[1,2-dihydro-5-fluoro-2-oxo-3H-indol-(Z)-3-ylidene]-4,5,6,7-tetrahydro-1H-indole-3-carboxamide] |
| 8.25 | 76 | CCN(CC)CCNC(=O)c1c(C)[nH]c2c1CCC/C2=C1/C(=O)Nc2ccc(C)cc21 [I-4, N-(2-(diethylamino)ethyl)-2-methyl-7-[1,2-dihydro-5-methyl-2-oxo-3H-indol-(Z)-3-ylidene]-4,5,6,7-tetrahydro-1H-indole-3-carboxamide] |
| – | 79 | Cc1[nH]c2c(c1C(=O)NCCN(C)C)CCC/C2=C1/C(=O)Nc2ccc(F)cc21 [I-6, N-(2-(dimethylamino)ethyl)-2-methyl-7-[1,2-dihydro-5-fluoro-2-oxo-3H-indol-(Z)-3-ylidene]-4,5,6,7-tetrahydro-1H-indole-3-carboxamide] |
| 8.05 | 74 | CCN(CC)CCNC(=O)c1c(C)[nH]c2c1CCC/C2=C1/C(=O)Nc2ccccc21 [I-5, N-(2-(diethylamino)ethyl)-2-methyl-7-[1,2-dihydro-2-oxo-3H-indol-(Z)-3-ylidene]-4,5,6,7-tetrahydro-1H-indole-3-carboxamide] |
| – | 80 | CCN(CC)CC(O)CNC(=O)c1c(C)[nH]c2c1CCC/C2=C1/C(=O)Nc2ccccc21 (stereo not drawn) [I-63, N-(3-(diethylamino)-2-hydroxypropyl)-2-methyl-7-[1,2-dihydro-2-oxo-3H-indol-(Z)-3-ylidene]-4,5,6,7-tetrahydro-1H-indole-3-carboxamide] |
